Reference: ChEMBL document CHEMBL1141658, “4-thiazolidinone--a biologically active scaffold” (Eur J Med Chem, 2008)
≈ marks a conversion by molar mass, not a printed value. Values belong to the compound of their own block, whether it stands above or below them.

Experiments:
[1] = target: T1, Prostaglandin G/H synthase 2 (Mus musculus) (UniProt Q05769); assay: Inhibition of COX2 in mouse J774 cells at 1 uM; assay type: cell-based
T1 sequence (whole entry): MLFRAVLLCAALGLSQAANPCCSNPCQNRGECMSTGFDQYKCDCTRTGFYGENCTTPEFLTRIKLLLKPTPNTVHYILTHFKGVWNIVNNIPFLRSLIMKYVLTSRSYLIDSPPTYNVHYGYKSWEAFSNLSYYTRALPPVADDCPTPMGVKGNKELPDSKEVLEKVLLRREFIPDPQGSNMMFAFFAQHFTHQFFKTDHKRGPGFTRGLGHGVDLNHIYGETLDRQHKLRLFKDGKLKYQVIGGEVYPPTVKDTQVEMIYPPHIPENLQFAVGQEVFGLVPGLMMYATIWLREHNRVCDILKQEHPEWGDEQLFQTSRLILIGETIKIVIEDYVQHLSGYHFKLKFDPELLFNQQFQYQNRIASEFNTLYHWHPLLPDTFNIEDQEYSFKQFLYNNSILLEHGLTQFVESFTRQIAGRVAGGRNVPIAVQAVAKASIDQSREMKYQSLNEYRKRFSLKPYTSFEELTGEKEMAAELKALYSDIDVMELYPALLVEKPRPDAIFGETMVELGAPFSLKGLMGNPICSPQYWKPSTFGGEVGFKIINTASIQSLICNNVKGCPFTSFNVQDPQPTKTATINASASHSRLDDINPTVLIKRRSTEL

[2] = target: T1, Prostaglandin G/H synthase 2 (Mus musculus); assay: Inhibition of COX2 in mouse J774 cells at 10 uM; assay type: cell-based
Rattus norvegicus = assay: Antiinflammatory activity against carrageenan-induced edema in po dosed Albino rat; assay type: functional
Alternaria alternata = assay: Inhibition of Alternaria tenuis spore germination; assay type: functional
Mus musculus = assay: Potentiation of pentobarbital-induced hypnosis in mouse assessed as sleeping time at 100 mg/kg relative to control; assay type: functional
[3] = system: Human immunodeficiency virus 1; assay: Antiviral activity against HIV1 3B in human MT4 cells; assay type: functional, organism-based; conditions: Human immunodeficiency virus 1, 3B
Candida albicans = assay: Antifungal activity against Candida albicans by serial double dilution method; assay type: functional
Cryptococcus neoformans = assay: Antifungal activity against Cryptococcus neoformans by serial double dilution method; assay type: functional
[4] = Selectivity index, ratio of inhibition of human MT4 cells to EC50 for HIV1 3B; assay type: toxicity, cell-based; conditions: read-out: Selectivity Index
[5] = target: T2, Follicle-stimulating hormone receptor (Homo sapiens, UniProt P23945); assay: Agonist activity at human recombinant FSH receptor; assay type: functional
T2 sequence (P23945 whole entry): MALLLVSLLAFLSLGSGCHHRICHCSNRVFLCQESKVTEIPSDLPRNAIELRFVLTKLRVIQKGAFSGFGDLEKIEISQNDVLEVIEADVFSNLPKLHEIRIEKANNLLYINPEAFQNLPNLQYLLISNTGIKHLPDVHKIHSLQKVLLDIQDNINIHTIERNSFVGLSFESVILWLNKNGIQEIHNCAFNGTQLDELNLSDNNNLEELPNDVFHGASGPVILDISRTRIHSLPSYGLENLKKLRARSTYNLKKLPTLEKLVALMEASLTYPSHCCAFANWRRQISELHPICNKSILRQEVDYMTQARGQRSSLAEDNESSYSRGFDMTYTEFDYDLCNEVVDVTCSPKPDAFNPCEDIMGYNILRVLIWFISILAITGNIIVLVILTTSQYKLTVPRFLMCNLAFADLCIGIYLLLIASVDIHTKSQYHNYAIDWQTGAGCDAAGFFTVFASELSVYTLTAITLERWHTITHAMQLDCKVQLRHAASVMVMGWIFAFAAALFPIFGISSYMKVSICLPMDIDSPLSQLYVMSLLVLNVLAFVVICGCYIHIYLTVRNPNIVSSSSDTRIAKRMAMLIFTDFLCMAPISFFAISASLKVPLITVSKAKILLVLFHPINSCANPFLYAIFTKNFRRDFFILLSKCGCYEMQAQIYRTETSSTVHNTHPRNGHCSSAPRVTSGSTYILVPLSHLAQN

inhibition [1]: 35%
inhibition [2]: 55%
SMILES: CCCN1C(=O)/C(=C2\C=CC(OC)=CC2)S/C1=N\c1ccccc1

SMILES: CC1SC(c2ccccc2F)N(c2ccc(Br)cc2C(=O)O)C1=O (stereo not given)
ED50 (Rattus norvegicus): 100 mg/kg

SMILES: CCN1C(=O)C(C)S/C1=N\c1nc2cc(Cl)ccc2s1 (stereo not given)
inhibition (INH) (Alternaria alternata): 100%

SMILES: CCCCC1C(=O)N(c2ccccc2)N(c2ccccc2)C1=O [PHENYLBUTAZONE]
ED50 (Rattus norvegicus): 94.4 mg/kg

SMILES: O=C1CS/C(=N\c2ccccc2)N1CCCN1CCOCC1
inhibition (INH) (Alternaria alternata): 100%
Time (Mus musculus): 98.6 min

SMILES: O=C1CS/C(=N\c2ccccc2)N1c1ncccn1
inhibition (INH) (Alternaria alternata): 100%
Time (Mus musculus): 98.6 min

EC50 [3]: 0.204 µM
SMILES: O=C1CSC(c2c(Cl)cccc2Cl)N1Cc1ccco1 (stereo not given)

MIC (Candida albicans): 50 µg/mL (≈ 103 µM)
MIC (Cryptococcus neoformans): 50 µg/mL (≈ 103 µM)
SMILES: CCCCCCCCCCCCN1C(=O)CSC12CCC(C(=O)C(N)Cc1ccccc1)CC2 (stereo not given)

SMILES: Cc1cccc(N2C(=O)CSC2c2c(Cl)cccc2Cl)n1 (stereo not given)
selectivity ratio [4]: 6470

EC50 [5]: 5 µM
SMILES: COc1ccc(C2SC(CC(=O)NCCC3=CCc4ccccc43)C(=O)N2c2ccc(C(N)=O)c(Cl)c2)cc1 (stereo not given)

SMILES: CCN1C(=O)C(C)S/C1=N\c1nc2c(Cl)cccc2s1 (stereo not given)
inhibition (INH) (Alternaria alternata): 100%
